Assay [1] deals with T1, human Hv1 (wild type, dimeric) (Homo sapiens, UniProt Q96D96).
T1 construct: gene HVCN1; full-length human Hv1 homodimer, 273 residues; pGEMHE cRNA in Xenopus laevis oocytes, inside-out patches
T1 sequence (Q96D96 1-273): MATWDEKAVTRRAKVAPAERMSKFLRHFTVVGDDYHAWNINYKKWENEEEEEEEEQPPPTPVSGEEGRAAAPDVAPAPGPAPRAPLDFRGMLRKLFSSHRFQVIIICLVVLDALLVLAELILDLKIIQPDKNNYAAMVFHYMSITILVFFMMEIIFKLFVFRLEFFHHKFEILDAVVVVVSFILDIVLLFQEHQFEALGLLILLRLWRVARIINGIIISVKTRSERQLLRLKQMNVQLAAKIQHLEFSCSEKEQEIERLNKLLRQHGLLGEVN
The assay can be described thus: cell-based. On the set-up: species or system Xenopus oocytes; patch-clamp proton currents, Hill fit of current inhibition, +120 mV, pHi = pHo = 6.0. Conditions: apparent Kd, Hill fit of current inhibition; read-out: Kd (µM) (±SE). The text has this:
Figure 1 Hv1 inhibition by guanidinothiazole derivatives. […] [2] 2-guanidino-benzothiazole (GBTA), [3] (5-trifluoromethyl-1,3-benzothiazol-2-yl)guanidine, [4] naphtho[1,2-d][1,3]thiazol-2-yl-guanidine, [5] (4-methyl-1,3-thiazol-2-yl)guanidine, [6] […] 1-[4-(4-chlorophenyl)-1,3-thiazol-2-yl]guanidine, [12] 1-[4-(3,4-dimethoxyphenyl)-1,3-thiazol-2-yl]guanidine. (b) Inhibition of human Hv1 activity by the indicated guanidinothiazoles and reference compound 2GBI (teal column). Hv1 proton currents were measured in inside out patches from Xenopus oocytes in response to depolarizations to +120 mV from a holding potential of −80 mV. Each inhibitor was added to the bath solution at a concentration of 200 μM. pHi = pHo = 6.0. Data are means ± S.E.M. (n ≥ 4). (c) Concentration dependences of inhibition of human Hv1 by compounds [2], [3], [6], and [11]. […] Apparent dissociation constants (Kd) for the different combinations of channel and inhibitor (Supplementary Table 1) were determined by fitting the concentration dependences of inhibition (average %inhib values) with the Hill equation: Figure 6 Open-state coupling is mediated by direct physical interaction between outer ends of S1 segments in the two subunits. […] Hill coefficients in inset histograms were determined from fits reported in Supplementary Figs 3 and 4. […]

For a further assay, the target named is T2, D112E I127C+βME (Homo sapiens, UniProt Q96D96, D112E/I127C).
T2 construct: gene HVCN1; Hv1 homodimer, cysteines reduced by 10 mM βME
T2 sequence (Q96D96 1-273 D112E/I127C): T1 sequence (Q96D96 1-273) with D112E, I127C
Briefly: cell-based. Details: species or system Xenopus oocytes; patch-clamp proton currents, Hill fit of current inhibition, +120 mV, pHi = pHo = 6.0. The settings on record: read-out: Kd (µM) (±SE). How it is done: (§1) [2] 2-guanidino-benzothiazole (GBTA), [3] (5-trifluoromethyl-1,3-benzothiazol-2-yl)guanidine, [4] naphtho[1,2-d][1,3]thiazol-2-yl-guanidine, [5] (4-methyl-1,3-thiazol-2-yl)guanidine, [6] […] 1-[4-(4-chlorophenyl)-1,3-thiazol-2-yl]guanidine, [12] 1-[4-(3,4-dimethoxyphenyl)-1,3-thiazol-2-yl]guanidine. […] Hv1 proton currents were measured in inside out patches from Xenopus oocytes in response to depolarizations to +120 mV from a holding potential of −80 mV. Each inhibitor was added to the bath solution at a concentration of 200 μM. pHi = pHo = 6.0. Data are means ± S.E.M. (n ≥ 4). […] (a) Schematics of mutant Hv1 dimers and linked dimers designed to study how intersubunit cysteine crosslinking affects GBTA binding cooperativity. […] Hill coefficients in inset histograms were determined from fits reported in Supplementary Figs 3 and 4.

The target of a further assay is T3, I127C+βME (Homo sapiens, UniProt Q96D96, I127C).
T3 construct: gene HVCN1; Hv1 homodimer, cysteines reduced by 10 mM βME
T3 sequence (Q96D96 1-273 I127C): T1 sequence (Q96D96 1-273) with I127C
The assay can be described thus: cell-based. On the set-up: species or system Xenopus oocytes; patch-clamp proton currents, Hill fit of current inhibition, +120 mV, pHi = pHo = 6.0. The settings on record: read-out: Kd (µM) (±SE). As for the experimental part: as §1

The target of assay [2] is T4, human Hv1 (wild type, dimeric) D123R (Homo sapiens, UniProt Q96D96, D123R).
T4 construct: gene HVCN1; full-length human Hv1 homodimer, 273 residues; pGEMHE cRNA in Xenopus laevis oocytes, inside-out patches
T4 sequence (Q96D96 1-273 D123R): T1 sequence (Q96D96 1-273) with D123R
Briefly: cell-based. Conditions: apparent Kd, Hill fit of current inhibition; read-out: Kd (µM) (±SE). Details: species or system Xenopus oocytes; patch-clamp proton currents, Hill fit of current inhibition, +120 mV, pHi = pHo = 6.0. As for the experimental part:
as §1

Assay [3] concerns the target T5, human Hv1 (wild type, dimeric) E119A (Homo sapiens, UniProt Q96D96, E119A).
T5 construct: gene HVCN1; full-length human Hv1 homodimer, 273 residues; pGEMHE cRNA in Xenopus laevis oocytes, inside-out patches
T5 sequence (Q96D96 1-273 E119A): T1 sequence (Q96D96 1-273) with E119A
The assay can be described thus: cell-based. Details: species or system Xenopus oocytes; patch-clamp proton currents, Hill fit of current inhibition, +120 mV, pHi = pHo = 6.0. The settings on record: apparent Kd, Hill fit of current inhibition; read-out: Kd (µM) (±SE). As for the experimental part: as §1

Assay [4] addresses T6, human Hv1 (wild type, dimeric) K125A (Homo sapiens, UniProt Q96D96, K125A).
T6 construct: gene HVCN1; full-length human Hv1 homodimer, 273 residues; pGEMHE cRNA in Xenopus laevis oocytes, inside-out patches
T6 sequence (Q96D96 1-273 K125A): T1 sequence (Q96D96 1-273) with K125A
Briefly: cell-based. Details: species or system Xenopus oocytes; patch-clamp proton currents, Hill fit of current inhibition, +120 mV, pHi = pHo = 6.0. The settings on record: apparent Kd, Hill fit of current inhibition; read-out: Kd (µM) (±SE). As for the experimental part: as §1

The target in assay [5] is T1, human Hv1 (wild type, dimeric). The assay can be described thus: inside-out patch clamp, proton current inhibition, Hill fit. The settings on record: wild-type dimer; open-channel block at +120 mV; pHi = pHo = 6.0; 22 °C; inhibitor on intracellular side. It is filed as biochemical. On the technique in general: Patch clamp records ionic current or voltage across a cell membrane.

The structures appear in SMILES notation. Substitutions are numbered along the chain they refer to.

As for `N=C(N)Nc1nc2ccccc2s1` [compound 2, 2-guanidino-benzothiazole], the Kd came out at 90 ± 7 µM in assay [1]; 191 ± 11 µM on D112E I127C+βME; 44.3 ± 2.5 µM at I127C+βME; 35.8 ± 2.4 µM in assay [2]; 40.5 ± 2.9 µM in assay [3]; 86 ± 6 µM in assay [4].

With `NC(N)=Nc1nc2ccccc2[nH]1` [compound 1, 2-Guanidino-benzimidazole], the “apparent Kd” value in assay [5] is “inhibition of dimeric and monomeric Hv1 by compounds 2GBI and GBTA”.
